Where two headings read alike, the source gives them in different places.
Assays:
[1] = test system: rat formalin model of persistent pain; details: cited from earlier work
[2] = test system: rodent models of pain; details: neuropathic, incisional, chronic and acute inflammatory pain; cited from earlier work
[3] = test system: microglial; details: in vitro; cited from earlier work
[4] = test system: atherosclerotic lesions; details: low doses, apolipoprotein E knockout mice; cited from earlier work
[5] = test system: animal models of pain; details: acute thermal, persistent, inflammatory and neuropathic pain models; cited from earlier work
[6] = test system: ovariectomy-induced bone loss; details: mice, model for post-menopausal osteoporosis; cited from earlier work
[7] = target: rat CB1 receptors (HEK cells) (Rattus norvegicus (Rat), UniProt P20272); assay: rat CB1 cyclase functional assay (HitHunter cAMP); type: cell-based
Chain of rat CB1 receptors (HEK cells) (P20272 whole entry): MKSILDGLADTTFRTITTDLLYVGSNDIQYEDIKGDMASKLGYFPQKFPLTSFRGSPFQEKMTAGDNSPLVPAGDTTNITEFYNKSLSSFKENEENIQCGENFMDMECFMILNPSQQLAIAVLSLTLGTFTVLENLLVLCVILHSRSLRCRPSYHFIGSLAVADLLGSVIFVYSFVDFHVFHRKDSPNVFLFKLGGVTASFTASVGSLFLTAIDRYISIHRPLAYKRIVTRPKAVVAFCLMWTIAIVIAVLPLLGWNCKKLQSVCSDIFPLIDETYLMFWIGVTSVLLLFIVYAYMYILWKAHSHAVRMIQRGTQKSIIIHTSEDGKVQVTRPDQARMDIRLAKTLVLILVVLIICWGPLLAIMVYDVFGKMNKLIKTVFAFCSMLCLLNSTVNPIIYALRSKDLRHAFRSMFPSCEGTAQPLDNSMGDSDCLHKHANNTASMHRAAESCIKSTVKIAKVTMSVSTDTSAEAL

[8] = target: rat CB2 receptors (Rattus norvegicus (Rat), UniProt Q9QZN9); assay: rat CB2 radioligand binding assay ([3H]CP 55,940 competition); details: HEK293 membranes, 0.5 nM [3H]CP 55,940
Procedure, shortened: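 Membranes from HEK293 cells stably expressing rat CB2 (20 μg protein/well) were incubated 45 min at 30 °C with 0.5 nM [3H]CP 55,940 and five displacer concentrations, in pH 7.4 Tris buffer with 0.5 mg/mL BSA. Bound radioactivity was measured by filtration. Nonspecific binding was defined with 10 μM unlabeled CP 55,940.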

[9] = target: human CB2 receptors (Homo sapiens (Human), UniProt P34972); assay: human CB2 radioligand binding assay ([3H]CP 55,940 competition); details: HEK293 membranes, 0.5 nM [3H]CP 55,940; read-out: human CB2 (Ki)
Chain of human CB2 receptors (P34972 whole entry): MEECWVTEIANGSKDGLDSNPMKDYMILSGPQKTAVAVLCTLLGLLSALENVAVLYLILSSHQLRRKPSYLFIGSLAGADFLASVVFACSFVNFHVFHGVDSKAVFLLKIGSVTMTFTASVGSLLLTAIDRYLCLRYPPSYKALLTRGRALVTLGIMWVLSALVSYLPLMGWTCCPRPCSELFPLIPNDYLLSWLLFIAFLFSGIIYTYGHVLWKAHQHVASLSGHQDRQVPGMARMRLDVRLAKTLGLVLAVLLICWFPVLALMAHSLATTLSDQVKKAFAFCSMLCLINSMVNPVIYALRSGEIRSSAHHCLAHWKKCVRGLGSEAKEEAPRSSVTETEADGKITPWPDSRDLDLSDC
Procedure, shortened: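 Displacement of 0.5 nM [3H]CP 55,940 over 0.01 nM-10 μM test compound, measured on human CB2 membranes from stably transfected HEK293 cells. Incubation 90 min at 30 °C in Tris/EDTA/MgCl2/BSA, pH 7.4, then filter-bound radioactivity counted; 10 μM unlabeled CP 55,940 defined nonspecific binding.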

[10] = target: rat CB2 receptors (HEK cells) (Rattus norvegicus (Rat), UniProt Q9QZN9); assay: rat CB2 cyclase functional assay (HitHunter cAMP); type: cell-based
[11] = HEK cells, forskolin 18 μM, read-out: rat CB2 cyclase (EC50)

Molecule | EC50 [7] [nM] | Ki [8] [nM] | Ki [9] [nM] | EC50 [10, 11] [nM] | other results
CCCCCCC(C)(C)c1cc(OC)c([C@@H]2C=C(CO)[C@@H]3C[C@H]2C3(C)C)c(OC)c1 [HU-308] | – | – | – | – | antinociceptive response [1]: elicits an antinociceptive response
COc1ccc2c(c1)c(CCN1CCOCC1)c(C)n2C(=O)c1cccc(Cl)c1Cl [GW405833] | – | – | – | – | efficacy in pain models [2]: efficacious
CCCC(C)(C)c1ccc2c(c1)OC(C)(C)[C@@H]1CC=C(C)C[C@@H]21 [JWH-133] | – | – | – | – | effect on β-amyloid-induced microglial activation and neurotoxicity [3]: abrogated β-amyloid-induced microglial activation and neurotoxicity
(−)-Δ^9-Tetrahydrocannabinol [THC] | – | – | – | – | effect on progression of atherosclerotic lesions [4]: slowed the progression of atherosclerotic lesions
CN1CCCCC1Cn1cc(C(=O)c2cc([N+](=O)[O-])ccc2I)c2ccccc21 (stereo not shown) [AM-1241] | – | – | – | – | analgesic efficacy [5]: robust analgesic efficacy
SR144528 | – | – | – | – | effect on osteoclast activity and bone loss [6]: inhibit osteoclast activity and reverse ovariectomy-induced bone loss
CN1C(=O)CC[C@H]1COc1ccc(C(F)(F)F)cc1C(=O)/N=c1\sc(C(C)(C)C)cn1C[C@H]1CCCO1 [Example 43, N-[(2Z)-5-tert-butyl-3-[(2R)-tetrahydrofuran-2-ylmethyl]-1,3-thiazol-2(3H)-ylidene]-2-{[(2S)-1-methyl-5-oxopyrrolidin-2-yl]methoxy}-5-(trifluoromethyl)benzamide] | 6560 | 3.3 | 62 | 2.09 | –
CC(C)(C)c1cn(C[C@H]2CCCO2)/c(=N/C(=O)c2cc(C(F)(F)F)ccc2OCc2cnco2)s1 [Example 37, N-[(2Z)-5-tert-butyl-3-[(2R)-tetrahydrofuran-2-ylmethyl]-1,3-thiazol-2(3H)-ylidene]-2-(1,3-oxazol-5-ylmethoxy)-5-(trifluoromethyl)benzamide] | 7550 | 9 | 26 | – | EC50 [10]: 0.5 nM
CN1C[C@H](F)C[C@H]1COc1ccc(C(F)(F)F)cc1C(=O)/N=c1\sc(C(C)(C)C)cn1C[C@H]1CCCO1 [Example 54, N-[(2Z)-5-tert-butyl-3-[(2R)-tetrahydrofuran-2-ylmethyl]-1,3-thiazol-2(3H)-ylidene]-2-{[(2S,4R)-4-fluoro-1-methylpyrrolidin-2-yl]methoxy}-5-(trifluoromethyl)benzamide] | 362 | 1.5 | 2 | 0.15 | –
CC(C)(C)c1cn(C[C@H]2CCCO2)/c(=N/C(=O)c2cc(C(F)(F)F)ccc2OC[C@@H]2CCCCN2)s1 [Example 4] | – | 0.6 | 0.7 | 0.4 | EC50 ([7]; HEK cells, forskolin 37 μM, read-out: rCB1 cyclase (EC50)): 395 nM
